We go through 29 compounds from patent US20230102554A1 (GB002, INC., priority 2019, published 2023).

Experiment [1] addresses T1, Human PDGFRα, cytoplasmic domain (GST-PDGFRα) (Homo sapiens, UniProt P16234).
T1 construct: made in house
The experiment in a line: Human PDGFRα biochemical inhibition assay (off-chip Mobility Shift Assay).

For experiment [2], the target named is T2, Human PDGFRβ, cytoplasmic domain (GST-PDGFRβ) (Homo sapiens, UniProt P09619).
T2 construct: made in house
The experiment in a line: Human PDGFRβ biochemical inhibition assay (off-chip Mobility Shift Assay). The gist of the method: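 GST-tagged cytoplasmic domain (aa 557-1106) from baculovirus was incubated 1 h at room temperature with compound, CSKtide, ATP at Km and Mg²⁺ in HEPES buffer, pH 7.5. Phosphorylated and unphosphorylated peptide were separated by off-chip mobility shift, and the product ratio P/(P+S) gave percent inhibition.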

Bounds are passed on as bounds.

T1 sequence (P16234 550-1089 T674I): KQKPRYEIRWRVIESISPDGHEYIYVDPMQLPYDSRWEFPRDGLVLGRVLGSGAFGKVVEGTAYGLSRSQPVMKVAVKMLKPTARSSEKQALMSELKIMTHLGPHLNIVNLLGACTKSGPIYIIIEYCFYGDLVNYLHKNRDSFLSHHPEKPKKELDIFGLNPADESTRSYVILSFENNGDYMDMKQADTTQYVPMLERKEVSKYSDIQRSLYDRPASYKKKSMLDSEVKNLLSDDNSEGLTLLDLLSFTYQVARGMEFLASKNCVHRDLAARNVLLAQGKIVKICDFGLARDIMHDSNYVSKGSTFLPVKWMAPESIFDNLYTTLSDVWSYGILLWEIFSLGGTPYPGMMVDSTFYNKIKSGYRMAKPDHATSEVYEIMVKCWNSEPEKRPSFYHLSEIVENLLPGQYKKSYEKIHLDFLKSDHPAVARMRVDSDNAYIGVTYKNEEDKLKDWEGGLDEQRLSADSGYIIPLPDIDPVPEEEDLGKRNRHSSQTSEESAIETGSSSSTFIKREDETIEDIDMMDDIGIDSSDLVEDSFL
T2 sequence (P09619 with tags, fused parts or gaps): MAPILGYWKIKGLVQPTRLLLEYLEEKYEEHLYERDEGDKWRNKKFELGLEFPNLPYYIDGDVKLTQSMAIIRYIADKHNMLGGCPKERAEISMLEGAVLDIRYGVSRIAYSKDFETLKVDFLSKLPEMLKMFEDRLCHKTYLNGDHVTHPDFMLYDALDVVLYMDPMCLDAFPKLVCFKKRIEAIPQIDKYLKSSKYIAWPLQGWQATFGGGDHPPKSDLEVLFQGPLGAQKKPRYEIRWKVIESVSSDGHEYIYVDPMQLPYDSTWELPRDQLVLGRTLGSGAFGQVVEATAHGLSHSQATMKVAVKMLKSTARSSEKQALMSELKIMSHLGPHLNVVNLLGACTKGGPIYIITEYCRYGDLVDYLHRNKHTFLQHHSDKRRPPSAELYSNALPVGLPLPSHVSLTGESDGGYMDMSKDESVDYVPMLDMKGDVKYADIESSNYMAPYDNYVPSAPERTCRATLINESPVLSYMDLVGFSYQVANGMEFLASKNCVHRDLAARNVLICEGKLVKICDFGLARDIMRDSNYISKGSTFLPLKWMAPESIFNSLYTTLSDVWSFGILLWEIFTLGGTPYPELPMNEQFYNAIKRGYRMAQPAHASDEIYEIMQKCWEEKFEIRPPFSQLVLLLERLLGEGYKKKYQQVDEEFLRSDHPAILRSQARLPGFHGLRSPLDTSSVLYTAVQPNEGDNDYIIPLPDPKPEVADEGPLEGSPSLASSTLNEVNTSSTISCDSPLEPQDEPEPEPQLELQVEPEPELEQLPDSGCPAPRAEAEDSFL

For the compound `Cc1cnn(C(=O)Nc2cccc([C@H](C)Nc3cnc4cnn(C)c4n3)c2)c1` [Compound 168, (S)-4-methyl-N-(3-(1-((1-methyl-1H-pyrazolo[3,4-b]pyrazin-6-yl)amino)ethyl)phenyl)-1H-pyrazole-1-carboxamide], the IC50 is less than 300 nM in experiment [1] and not below 1000 nM in experiment [2].
As to `C[C@H](Nc1cnc2cnn(C)c2n1)c1cccc(NC(=O)c2cnc3c(ccn3C)c2)c1` [Compound 169, (S)-1-methyl-N-(3-(1-((1-methyl-1H-pyrazolo[3,4-b]pyrazin-6-yl)amino)ethyl)phenyl)-1H-pyrrolo[2,3-b] pyridine-5-carboxamide], the IC50 in experiment [1] and in experiment [2] was less than 300 nM throughout.
As for `Cc1cncc(C(=O)Nc2cc(F)cc(C(C)Nc3cnc4cnn(C)c4n3)c2)c1` (stereo not shown) [Compound 170, N-(3-fluoro-5-(1-((1-methyl-1H-pyrazolo[3,4-b]pyrazin-6-yl)amino)ethyl)phenyl)-5-methylnicotinamide], the IC50 was less than 300 nM in experiment [1] and 300 to 1000 nM in experiment [2].
In the case of `Cc1cncc(C(=O)Nc2cc(F)cc([C@H](C)Nc3cnc4cnn(C)c4n3)c2)c1` [Compound 171, (S)-N-(3-fluoro-5-(1-((1-methyl-1H-pyrazolo[3,4-b]pyrazin-6-yl)amino)ethyl)phenyl)-5-methylnicotinamide], the half-inhibitory concentration (IC50) in experiment [1] and in experiment [2] was less than 300 nM each time.
With `Cc1cncc(C(=O)Nc2ccc(F)c([C@H](C)Nc3cnc4cnn(C)c4n3)c2)c1` [Compound 172], the half-maximal inhibitory concentration (IC50) in experiment [1] and in experiment [2] was less than 300 nM throughout.
Turning to `CCn1ncc2ncc(N[C@@H](C)c3cccc(NC(=O)c4cncc(C)c4)c3)nc21` [Compound 176, (S)-N-(3-(1-((1-ethyl-1H-pyrazolo[3,4-b]pyrazin-6-yl)amino)ethyl)phenyl)-5-methylnicotinamide], the IC50 in experiment [1] and in experiment [2] was less than 300 nM throughout.
With `Cc1cncc(C(=O)Nc2cccc([C@H](C)Nc3cnc4cnn(C5CC5)c4n3)c2)c1` [Compound 177, (S)-N-(3-(1-((1-cyclopropyl-1H-pyrazolo[3,4-b]pyrazin-6-yl)amino)ethyl)phenyl)-5-methylnicotinamide], the 50% inhibitory concentration (IC50) in experiment [1] and in experiment [2] was less than 300 nM in each case.
With `Cc1cncc(C(=O)Nc2cccc([C@H](C)Nc3cnc4cnn(C5CCC5)c4n3)c2)c1` [Compound 178, (S)-N-(3-(1-((1-cyclobutyl-1H-pyrazolo[3,4-b]pyrazin-6-yl)amino)ethyl)phenyl)-5-methylnicotinamide], the 50% inhibitory concentration (IC50) in experiment [1] and in experiment [2] was less than 300 nM in each case.
Regarding `Cc1cncc(C(=O)Nc2cccc([C@H](C)Nc3cnc4cnn(C5COC5)c4n3)c2)c1` [Compound 179, (S)-5-methyl-N-(3-(1-((1-(oxetan-3-yl)-1H-pyrazolo[3,4-b]pyrazin-6-yl)amino)ethyl)phenyl)nicotinamide], the values for the half-inhibitory concentration (IC50) in experiment [1] and in experiment [2] were 300 to 1000 nM and not below 1000 nM, respectively.
Regarding `Cc1cncc(C(=O)Nc2cccc([C@H](C)Nc3cnc4cnn(C5CCOCC5)c4n3)c2)c1` [Compound 180, (S)-5-methyl-N-(3-(1-((1-(tetrahydro-2H-pyran-4-yl)-1H-pyrazolo[3,4-b]pyrazin-6-yl)amino)ethyl)phenyl) nicotinamide], the IC50 in experiment [1] was 300 to 1000 nM; in experiment [2], not below 1000 nM.
`Cc1cncc(C(=O)Nc2cccc([C@H](C)Nc3cnc4cnn(CC5CC5)c4n3)c2)c1` [Compound 181, (S)-N-(3-(1-((1-(cyclopropylmethyl)-1H-pyrazolo[3,4-b]pyrazin-6-yl)amino)ethyl)phenyl)-5-methylnicotinamide]: the half-inhibitory concentration (IC50) in experiment [1] and in experiment [2] was less than 300 nM each time.
Consider `Cc1cncc(C(=O)Nc2cccc([C@H](C)Nc3cnc4cnn(C5CCOC5)c4n3)c2)c1` (stereo partly drawn) [Compound 182, 5-methyl-N-(3-((1S)-1-((1-(tetrahydrofuran-3-yl)-1H-pyrazolo[3,4-b]pyrazin-6-yl)amino)ethyl)phenyl) nicotinamide], for which the results for the IC50 in experiment [1] and in experiment [2] were less than 300 nM and not below 1000 nM, respectively.
For the compound `Cc1cncc(C(=O)Nc2cccc([C@H](C)Nc3cnc4cnn(CC(F)F)c4n3)c2)c1` [Compound 183, (S)-N-(3-(1-((1-(2,2-difluoroethyl)-1H-pyrazolo[3,4-b]pyrazin-6-yl)amino)ethyl)phenyl)-5-methylnicotinamide], the values for the half-inhibitory concentration (IC50) in experiment [1] and in experiment [2] were less than 300 nM and 300 to 1000 nM, respectively.
With `[2H]C([2H])([2H])n1ncc2ncc(N[C@@H](C)c3cccc(NC(=O)c4cncc(C)c4)c3)nc21` [Compound 184, (S)-5-methyl-N-(3-(1-((1-(methyl-d3)-1H-pyrazolo[3,4-b]pyrazin-6-yl)amino)ethyl)phenyl)nicotinamide], the IC50 in experiment [1] and in experiment [2] was less than 300 nM each time.
With `COc1ccc(-n2ncc3ncc(N[C@@H](C)c4cccc(NC(=O)c5cncc(C)c5)c4)nc32)cc1OC` [Compound 185, (S)-N-(3-(1-((1-(3,4-dimethoxyphenyl)-1H-pyrazolo[3,4-b]pyrazin-6-yl)amino)ethyl)phenyl)-5-methylnicotinamide], the 50% inhibitory concentration (IC50) in experiment [1] and in experiment [2] was less than 300 nM throughout.
Turning to `Cc1cncc(C(=O)Nc2cccc([C@H](C)Nc3cnc4cnn(-c5cnn(C)c5)c4n3)c2)c1` [Compound 186, (S)-5-methyl-N-(3-(1-((1-(1-methyl-1H-pyrazol-4-yl)-1H-pyrazolo[3,4-b]pyrazin-6-yl)amino)ethyl)phenyl) nicotinamide], the IC50 in experiment [1] and in experiment [2] was less than 300 nM each time.
On to `COc1ncc(C(=O)Nc2cccc([C@H](C)Nc3cnc4cnn(C)c4n3)c2)cc1Cl` [Compound 187, (S)-5-chloro-6-methoxy-N-(3-(1-((1-methyl-1H-pyrazolo[3,4-b]pyrazin-6-yl)amino)ethyl)phenyl)nicotinamide], for which the IC50 in experiment [1] and in experiment [2] was less than 300 nM throughout.
Turning to `Cc1ccc(C(=O)Nc2cccc([C@H](C)Nc3cnc4cnn(C)c4n3)c2)cc1F` [Compound 188, (S)-3-fluoro-4-methyl-N-(3-(1-((1-methyl-1H-pyrazolo[3,4-b]pyrazin-6-yl)amino)ethyl)phenyl)benzamide], the IC50 in experiment [1] and in experiment [2] was less than 300 nM in each case.
Regarding `COc1ccc(C(=O)Nc2cccc([C@H](C)Nc3cnc4cnn(C)c4n3)c2)cc1F` [Compound 189, (S)-3-fluoro-4-methoxy-N-(3-(1-((1-methyl-1H-pyrazolo[3,4-b]pyrazin-6-yl)amino)ethyl)phenyl)benzamide], the IC50 in experiment [1] and in experiment [2] was less than 300 nM throughout.
Take `Cc1cc(C(=O)Nc2cccc([C@H](C)Nc3cnc4cnn(C)c4n3)c2)cnc1C(F)F` [Compound 190, (S)-6-(difluoromethyl)-5-methyl-N-(3-(1-((1-methyl-1H-pyrazolo[3,4-b]pyrazin-6-yl)amino)ethyl)phenyl) nicotinamide]: the IC50 in experiment [1] and in experiment [2] was less than 300 nM in each case.
On to `C[C@H](Nc1cnc2cnn(C)c2n1)c1cccc(NC(=O)c2ccc(Cl)c(F)c2)c1` [Compound 191, (S)-4-chloro-3-fluoro-N-(3-(1-((1-methyl-1H-pyrazolo[3,4-b]pyrazin-6-yl)amino)ethyl)phenyl)benzamide], for which the IC50 in experiment [1] and in experiment [2] was less than 300 nM throughout.
For `Cc1cc(C(=O)Nc2cccc([C@H](C)Nc3cnc4cnn(C)c4n3)c2)cnc1F` [Compound 192, (S)-6-fluoro-5-methyl-N-(3-(1-((1-methyl-1H-pyrazolo[3,4-b]pyrazin-6-yl)amino)ethyl)phenyl)nicotinamide], the IC50 in experiment [1] and in experiment [2] was less than 300 nM each time.
As to `Cc1cc(C(=O)Nc2cccc([C@H](C)Nc3cnc4cnn(C)c4n3)c2)ccc1C#N` [Compound 193, (S)-4-cyano-3-methyl-N-(3-(1-((1-methyl-1H-pyrazolo[3,4-b]pyrazin-6-yl)amino)ethyl)phenyl)benzamide], the IC50 in experiment [1] and in experiment [2] was less than 300 nM each time.
As for `CCNc1ncc(C(=O)Nc2cccc([C@H](C)Nc3cnc4cnn(C)c4n3)c2)cc1C` [Compound 194, (S)-6-(ethylamino)-5-methyl-N-(3-(1-((1-methyl-1H-pyrazolo[3,4-b]pyrazin-6-yl)amino)ethyl)phenyl) nicotinamide], the IC50 in experiment [1] and in experiment [2] was less than 300 nM each time.
With `Cc1cc(C(=O)Nc2cccc([C@H](C)Nc3cnc4cnn(C)c4n3)c2)cnc1N1CCN(C)CC1` [Compound 195, (S)-5-methyl-N-(3-(1-((1-methyl-1H-pyrazolo[3,4-b]pyrazin-6-yl)amino)ethyl)phenyl)-6-(4-methylpiperazin-1-yl)nicotinamide], the IC50 in experiment [1] and in experiment [2] was less than 300 nM throughout.
Turning to `CCOc1ccc(C(=O)Nc2cccc([C@H](C)Nc3cnc4cnn(C)c4n3)c2)cc1C` [Compound 196, (S)-4-ethoxy-3-methyl-N-(3-(1-((1-methyl-1H-pyrazolo[3,4-b]pyrazin-6-yl)amino)ethyl)phenyl)benzamide], the IC50 in experiment [1] and in experiment [2] was less than 300 nM throughout.
On to `COC(=O)c1ccc(C(=O)Nc2cccc([C@H](C)Nc3cnc4cnn(C)c4n3)c2)cc1Br` [Compound 197, methyl (S)-2-bromo-4-((3-(1-((1-methyl-1H-pyrazolo[3,4-b]pyrazin-6-yl)amino)ethyl)phenyl)carbamoyl)benzoate], for which the IC50 in experiment [1] and in experiment [2] was less than 300 nM throughout.
On to `Cc1cc(C(=O)Nc2cccc([C@H](C)Nc3cnc4cnn(C)c4n3)c2)cnc1NC(C)C` [Compound 198, (S)-6-(isopropylamino)-5-methyl-N-(3-(1-((1-methyl-1H-pyrazolo[3,4-b]pyrazin-6-yl)amino)ethyl)phenyl) nicotinamide], for which the IC50 in experiment [1] and in experiment [2] was less than 300 nM in each case.
On to `COC(=O)c1ccc(C(=O)Nc2cccc([C@H](C)Nc3cnc4cnn(C)c4n3)c2)cc1C` [Compound 199, methyl (S)-2-methyl-4-((3-(1-((1-methyl-1H-pyrazolo[3,4-b]pyrazin-6-yl)amino)ethyl)phenyl)carbamoyl)benzoate], for which the IC50 in experiment [1] and in experiment [2] was less than 300 nM in each case.
